The conditions of series [1]: Montet et al. 2006; cited from earlier work.
Another series has as its system FAK pathway. In words: Western blot of FAK pathway signaling in M21 cells. The class given is cell-based, human. To be noted: M21 cells exposed to 100 nM cRGDY-PEG-C dots. As to the method:
To determine whether […] integrin-binding cRGDY-PEG-C-dots modulates the activity of these pathways, we treated serum-deprived (0.2% FCS) M21 cells with 100 nM of cRGDY-PEG-C-dots for 2 hrs at 37° C.; serum-deprived cells treated with 0.2% FCS alone served as controls. […] These findings, depicted graphically as normalized intensity ratios, have been expressed relative to their respective total protein levels, and normalized to corresponding values measured under control conditions (FIG. 40C).
M21 cells (1×10^6 cells/six wells plate) were grown in six wells coated with collagen (10 mg/ml), and made quiescent by growing under serum-deprived conditions. The medium was then changed to 0.2% FCS, and different concentrations (25-400 nM) of cRGDY-PEG-C-dots were added (37° C., 0.5-8 hours). […] Protein concentrations were determined by the bicinchoninic acid assay (BCA, Thermo Scientific, Rockford, Ill.). […]
In order to quantify the differences in the size and intensity between Western blot bands, we performed densitometry of phosphorylated and total protein intermediates using Photoshop CS2 (Adobe, San Jose, Calif.). […]
(In general: In western blotting, separated proteins are transferred to a membrane and probed.)

The test system of the next series is HUVEC cells. Description: Migration assay, HUVEC cells. The class given is cell-based, human. Particulars: 400 nM particles, 24 hour, before and after addition of inhibitor. As to the method: M21 cells: M21 cells were seeded (6×10^4 cells/well) using a migration kit (Oris™ Collagen I coated plate, […] TEC). Twenty-four hours after seeding the cells, stoppers in the plate were removed. Fresh culture media (100 μl) supplemented with 0.2% FBS was introduced and cRGDY-PEG-C-dots were added at several concentrations: 25, 100 and 400 nM. Every 24 hours thereafter, media was replaced, along with new particles, over a 72 hr time interval. Prior to incubating the plate at 37° C. overnight, time zero images were captured by the Axiovert 200M microscope (Carl Zeiss) using a 5× (0.15 NA) objective and using a scan slide module in the Metamorph software (molecular devices, PA). Serial microscopy was then performed and images captured every 24 hrs for a total of 96 hours post-incubation. The data were analyzed by using ImageJ software. […]
Phase contrast images captured for migration studies were analyzed using ImageJ 1.45s (National Institutes of Health, rsbweb.nih.gov/ij/) in order to quantify the extent of cell migration (i.e., area closure) for M21 cells and HUVECs. […] The enclosed area for each image was measured (pixels) and used to calculate percent closure relative to time zero (following particle addition and media replacement) as follows: difference in area at a given time point (24, 48, 72 or 96 hr) and at time zero divided by the same area at time zero multiplied by 100. […]

Series [2] concerns melanoma nodal metastases. Set-up: species or system Sinclair miniature swine. To be noted: in vivo.
Description: Spontaneous melanoma Sinclair miniature swine (10-12 kg, Sinclair Research Center, MO) were injected intravenously with 5 mCi ^18F-fluoro-deoxyglucose (^18F-FDG) for whole-body screening of nodal and/or organ metastases. Miniswine underwent 1-hr dynamic ^18F-FDG PET whole body PET scan using a clinical PET scanner 40 minutes after injection to screen for metastatic disease, followed by CT scan acquisition for anatomic localization. […]
Miniswine were taken to the operating room for identification of nodes. Optical fluorescence imaging was performed using large field-of-view near infrared fluorescence camera system, smaller field-of-view modified endoscope, and a modified stereomacroscope for obtaining higher resolution fluorescence images within the exposed surgical bed. […]
The primary melanoma skin lesion was excised, and an incision made to allow access to the sentinel node(s). […] Specimens were sent for histological assessment for metastases and optical confocal microscopy to confirm the presence of both malignancy and nanoparticle fluorescence.
Following harvest of the sentinel nodes, the entire lymph node basin was excised and further evaluated using histological methods (with immunohistochemical markers for melanoma as needed), fluorescence microscopy, and the hand-held PET probe for correlative purposes. […]

Turning to cRGD, the “published blood T1/2 / blood residence half-time” value in series [1] is recorded as “about 13 minutes”.

As to `CS(=O)(=O)c1cccc(CNc2nc(Nc3ccc4c(c3)CCC(=O)N4)ncc2C(F)(F)F)c1` [PF-573228], the “Inhibition of MEK or Erk phosphorylation” value with FAK pathway (250, 500 nM inhibitor) was “observed only at the higher inhibitor concentration”. Moreover, the “phosphorylation of FAK on Tyr397 and Src” value in the series with FAK pathway (two inhibitor concentrations (250, 500 nM)) is “inhibition of the phosphorylation of FAK on Tyr^397 and Src”. In addition, the “Percentage change in mean areas of closure relative to controls” value with HUVEC cells is on record as “+3%”.

With ^18F-fluorodeoxyglucose [^18F-FDG], the “discrimination of metastatic disease from inflammation” value in series [2] is “failed to detect metastatic disease, while identifying inflammatory and other metabolically active sites”.
